The IC50 is the midpoint of a concentration-inhibition curve. The GI50 is the concentration giving 50% growth inhibition. The inhibition is how much of the control response was suppressed.

Some results are limits rather than exact numbers.

The source of these data is ChEMBL document CHEMBL4402524, “Identification of Novel Resorcinol Amide Derivatives as Potent and Specific Pyruvate Dehydrogenase Kinase (PDHK) Inhibitors” (J Med Chem, 2019).

The target in one assay is Cytochrome P450 2C9 (Homo sapiens, UniProt P11712). The assay can be described thus: Inhibition of CYP2C9 (unknown origin). It counts as ADME.
Cytochrome P450 2C9, sequence (P11712 whole entry): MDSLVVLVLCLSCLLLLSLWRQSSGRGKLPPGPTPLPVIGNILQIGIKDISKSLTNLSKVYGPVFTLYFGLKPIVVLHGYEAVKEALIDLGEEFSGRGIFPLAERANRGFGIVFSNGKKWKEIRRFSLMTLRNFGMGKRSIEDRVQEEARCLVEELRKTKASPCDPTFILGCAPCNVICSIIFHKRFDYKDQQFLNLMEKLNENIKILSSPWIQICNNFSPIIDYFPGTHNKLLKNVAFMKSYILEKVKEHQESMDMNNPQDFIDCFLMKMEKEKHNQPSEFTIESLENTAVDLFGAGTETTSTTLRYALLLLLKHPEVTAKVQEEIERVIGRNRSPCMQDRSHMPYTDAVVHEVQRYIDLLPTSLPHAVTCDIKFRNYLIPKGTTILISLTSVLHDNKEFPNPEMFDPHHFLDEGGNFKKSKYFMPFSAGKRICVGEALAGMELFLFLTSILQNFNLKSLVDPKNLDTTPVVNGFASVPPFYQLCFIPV
Another assay concerns the target T1, Cytochrome P450 1A2 (Homo sapiens, UniProt P05177).
T1 sequence (P05177 whole entry): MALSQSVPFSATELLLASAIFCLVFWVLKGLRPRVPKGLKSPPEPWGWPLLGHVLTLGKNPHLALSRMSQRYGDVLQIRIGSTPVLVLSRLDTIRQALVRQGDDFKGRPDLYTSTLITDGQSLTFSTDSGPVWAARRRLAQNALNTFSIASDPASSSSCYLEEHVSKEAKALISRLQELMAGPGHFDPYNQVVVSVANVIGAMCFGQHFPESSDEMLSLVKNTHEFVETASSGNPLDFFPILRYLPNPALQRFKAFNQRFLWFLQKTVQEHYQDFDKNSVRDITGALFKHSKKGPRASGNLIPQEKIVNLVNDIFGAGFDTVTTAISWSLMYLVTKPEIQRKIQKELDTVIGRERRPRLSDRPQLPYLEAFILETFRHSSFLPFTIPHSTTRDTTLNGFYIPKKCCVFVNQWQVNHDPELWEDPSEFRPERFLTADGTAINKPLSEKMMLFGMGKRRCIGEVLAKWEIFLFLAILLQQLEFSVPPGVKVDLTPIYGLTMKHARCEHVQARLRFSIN
The assay can be described thus: Inhibition of CYP1A2 (unknown origin). It counts as ADME.

In assay [1] the target is [Pyruvate dehydrogenase (acetyl-transferring)] kinase isozyme 1, mitochondrial (Homo sapiens, UniProt Q15118). The assay can be described thus: Inhibition of PDHK1 (unknown origin) by radiometric biochemical kinase assay.
[Pyruvate dehydrogenase (acetyl-transferring)] kinase isozyme 1, mitochondrial, sequence (Q15118 whole entry): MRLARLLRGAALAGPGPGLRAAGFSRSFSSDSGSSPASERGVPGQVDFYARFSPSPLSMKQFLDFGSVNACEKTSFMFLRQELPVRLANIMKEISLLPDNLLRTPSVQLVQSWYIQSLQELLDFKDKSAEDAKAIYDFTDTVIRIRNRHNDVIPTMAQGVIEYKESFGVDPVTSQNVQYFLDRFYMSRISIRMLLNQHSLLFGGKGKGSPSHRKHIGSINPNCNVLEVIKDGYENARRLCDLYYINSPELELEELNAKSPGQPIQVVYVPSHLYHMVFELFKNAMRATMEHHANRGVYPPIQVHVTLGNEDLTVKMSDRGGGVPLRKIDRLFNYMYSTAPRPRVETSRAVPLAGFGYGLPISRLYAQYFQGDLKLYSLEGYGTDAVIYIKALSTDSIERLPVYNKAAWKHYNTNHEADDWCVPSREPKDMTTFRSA
Assay [2] has as its system DU-145. The assay can be described thus: Antiproliferative activity against p53 deficient human DU145 cells incubated for 72 hrs by CellTiter-Glo assay. Particulars: DU-145, 72 h. It counts as functional. For orientation: ATP-based viability assays read luminescence as a measure of living cells.
A further assay addresses Cytochrome P450 2C19 (Homo sapiens, UniProt P33261). Briefly: Inhibition of CYP2C19 (unknown origin). The class given is ADME.
For another assay, the target named is Cytochrome P450 3A4 (Homo sapiens, UniProt P08684). Briefly: Inhibition of CYP3A4 (unknown origin). The class given is ADME.
Cytochrome P450 3A4, sequence (P08684 whole entry): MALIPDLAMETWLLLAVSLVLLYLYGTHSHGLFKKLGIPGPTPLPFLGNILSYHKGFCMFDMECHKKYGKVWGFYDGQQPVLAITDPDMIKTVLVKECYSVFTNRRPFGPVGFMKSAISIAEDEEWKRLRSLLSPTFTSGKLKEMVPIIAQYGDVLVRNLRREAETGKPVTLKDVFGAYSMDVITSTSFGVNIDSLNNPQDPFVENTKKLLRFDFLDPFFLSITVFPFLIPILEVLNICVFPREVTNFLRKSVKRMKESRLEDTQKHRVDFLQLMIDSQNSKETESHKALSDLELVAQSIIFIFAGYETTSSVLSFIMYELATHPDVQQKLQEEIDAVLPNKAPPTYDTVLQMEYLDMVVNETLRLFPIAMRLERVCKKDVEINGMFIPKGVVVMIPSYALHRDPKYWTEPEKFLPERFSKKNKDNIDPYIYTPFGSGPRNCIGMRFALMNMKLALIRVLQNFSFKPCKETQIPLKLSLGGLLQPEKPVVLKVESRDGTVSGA
Another assay concerns the target Heat shock protein HSP90 (Homo sapiens, UniProt P07900+P08238). Briefly: Inhibition of HSP90 (unknown origin). The class given is protein assay.
The test system of assay [3] is NCI-H1299. The assay can be described thus: Antiproliferative activity against p53 deficient human H1299 cells incubated for 72 hrs by CellTiter-Glo assay. It counts as functional. Particulars: NCI-H1299, 72 h.
Assay [4] addresses T2, [Pyruvate dehydrogenase (acetyl-transferring)] kinase isozyme 2, mitochondrial (Homo sapiens, UniProt Q15119). Briefly: Inhibition of PDHK2 (unknown origin) by radiometric biochemical kinase assay.
In assay [5] the target is T2, [Pyruvate dehydrogenase (acetyl-transferring)] kinase isozyme 2, mitochondrial. The assay can be described thus: Inhibition of PDHK2 (unknown origin) assessed as reduction in NAD measured for 30 mins.
The target in assay [6] is [Pyruvate dehydrogenase (acetyl-transferring)] kinase isozyme 3, mitochondrial (Homo sapiens, UniProt Q15120). The assay can be described thus: Inhibition of PDHK3 (unknown origin) by radiometric biochemical kinase assay.
[Pyruvate dehydrogenase (acetyl-transferring)] kinase isozyme 3, mitochondrial, sequence (Q15120 whole entry): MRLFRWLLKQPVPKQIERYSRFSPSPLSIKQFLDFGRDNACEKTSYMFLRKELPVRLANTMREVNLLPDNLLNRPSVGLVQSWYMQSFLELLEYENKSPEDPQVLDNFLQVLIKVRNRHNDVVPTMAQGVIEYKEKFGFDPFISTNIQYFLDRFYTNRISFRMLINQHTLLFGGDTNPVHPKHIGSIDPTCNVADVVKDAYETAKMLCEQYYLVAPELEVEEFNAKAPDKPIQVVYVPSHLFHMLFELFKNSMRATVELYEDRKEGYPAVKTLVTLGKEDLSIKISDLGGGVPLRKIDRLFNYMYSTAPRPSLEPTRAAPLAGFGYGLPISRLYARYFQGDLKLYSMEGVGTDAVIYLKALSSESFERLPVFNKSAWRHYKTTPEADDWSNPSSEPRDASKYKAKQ
In another assay the target is Cytochrome P450 2D6 (Homo sapiens, UniProt P10635). Briefly: Inhibition of CYP2D6 (unknown origin). The class given is ADME.
Cytochrome P450 2D6, sequence (P10635 whole entry): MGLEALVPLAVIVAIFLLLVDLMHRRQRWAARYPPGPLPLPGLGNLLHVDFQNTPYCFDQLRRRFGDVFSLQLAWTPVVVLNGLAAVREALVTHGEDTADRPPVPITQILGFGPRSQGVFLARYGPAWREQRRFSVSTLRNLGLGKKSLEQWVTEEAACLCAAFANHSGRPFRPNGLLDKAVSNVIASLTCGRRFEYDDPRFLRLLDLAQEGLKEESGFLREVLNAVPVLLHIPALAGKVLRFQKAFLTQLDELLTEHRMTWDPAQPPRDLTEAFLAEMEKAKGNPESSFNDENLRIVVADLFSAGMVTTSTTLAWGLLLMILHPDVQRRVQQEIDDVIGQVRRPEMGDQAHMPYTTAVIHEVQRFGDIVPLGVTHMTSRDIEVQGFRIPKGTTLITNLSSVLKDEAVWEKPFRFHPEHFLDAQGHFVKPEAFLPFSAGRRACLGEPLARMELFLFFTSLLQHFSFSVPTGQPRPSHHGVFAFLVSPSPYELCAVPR
Assay [7] concerns the target T3, [Pyruvate dehydrogenase (acetyl-transferring)] kinase isozyme 4, mitochondrial (Homo sapiens, UniProt Q16654). Briefly: Inhibition of PDHK4 (unknown origin) assessed as reduction in NAD measured for 30 mins.
The target of assay [8] is T3, [Pyruvate dehydrogenase (acetyl-transferring)] kinase isozyme 4, mitochondrial. The assay can be described thus: Inhibition of PDHK4 (unknown origin) by radiometric biochemical kinase assay.
For assay [9], the system named is NCI-H1299. Briefly: Synergistic induction of apoptosis in human H1299 cells assessed as increase in apoptotic cells at 10 uM incubated for 48 hrs in presence of satra-platin by FITC Annexin-V and PI staining based flow cytometric analysis relative to control. The class given is functional. (Flow cytometry measures light scatter and fluorescence of single cells or particles in a stream.)

Assay [10] relates to NCI-H1299. Briefly: Antiproliferative activity against PDHK1/2 double knockdown human H1299 cells transfected with PDHK1/2 siRNA at 10 uM incubated for 48 hrs by CellTiter-Glo assay relative to control. It counts as functional.
Assay [11] deals with NCI-H1299. The assay can be described thus: Inhibition of anchorage-independent colony formation in human H1299 cells at 20 uM incubated for 14 days by p iodonitrotetrazolium violet staining based method relative to control. It counts as functional. Particulars: NCI-H1299, 336 h.
For assay [12], the system named is NCI-H1299. The assay can be described thus: Antiproliferative activity against human H1299 cells transfected with control siRNA at 10 uM incubated for 48 hrs in by CellTiter-Glo assay relative to control. The class given is functional.
For assay [13], the system named is NCI-H1299. The assay can be described thus: Synergistic antiproliferative activity against human H1299 cells at 20 uM incubated for 72 hrs in presence of satra-platin by CellTiter-Glo assay relative to control. It counts as functional. Particulars: NCI-H1299, 72 h.
The test system of assay [14] is NCI-H1299. The assay can be described thus: Antiproliferative activity against p53 deficient human H1299 cells at 20 uM incubated for 72 hrs by CellTiter-Glo assay relative to control. The class given is functional.
Assay [15] deals with DU-145. Briefly: Induction of apoptosis in human DU145 cells assessed as increase in apoptotic cells at 30 uM incubated for 48 hrs by FITC Annexin-V and PI staining based flow cytometric analysis relative to control. It counts as functional.
Assay [16] relates to NCI-H1299. Briefly: Induction of apoptosis in human H1299 cells assessed as increase in apoptotic cells at 30 uM incubated for 48 hrs by FITC Annexin-V and PI staining based flow cytometric analysis relative to control. It counts as functional.

T3 sequence (Q16654 whole entry): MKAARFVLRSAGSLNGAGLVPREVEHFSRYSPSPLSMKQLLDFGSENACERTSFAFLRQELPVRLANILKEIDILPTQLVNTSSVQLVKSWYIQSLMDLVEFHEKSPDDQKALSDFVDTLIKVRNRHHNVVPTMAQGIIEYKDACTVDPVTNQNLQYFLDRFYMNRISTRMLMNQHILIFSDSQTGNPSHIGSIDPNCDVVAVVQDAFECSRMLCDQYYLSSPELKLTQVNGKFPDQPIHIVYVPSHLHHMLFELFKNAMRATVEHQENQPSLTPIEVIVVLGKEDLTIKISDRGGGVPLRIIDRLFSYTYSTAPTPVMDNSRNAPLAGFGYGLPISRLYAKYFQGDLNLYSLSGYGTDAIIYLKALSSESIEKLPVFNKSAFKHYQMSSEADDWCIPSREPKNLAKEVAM
Cytochrome P450 2C19, sequence (P33261 whole entry): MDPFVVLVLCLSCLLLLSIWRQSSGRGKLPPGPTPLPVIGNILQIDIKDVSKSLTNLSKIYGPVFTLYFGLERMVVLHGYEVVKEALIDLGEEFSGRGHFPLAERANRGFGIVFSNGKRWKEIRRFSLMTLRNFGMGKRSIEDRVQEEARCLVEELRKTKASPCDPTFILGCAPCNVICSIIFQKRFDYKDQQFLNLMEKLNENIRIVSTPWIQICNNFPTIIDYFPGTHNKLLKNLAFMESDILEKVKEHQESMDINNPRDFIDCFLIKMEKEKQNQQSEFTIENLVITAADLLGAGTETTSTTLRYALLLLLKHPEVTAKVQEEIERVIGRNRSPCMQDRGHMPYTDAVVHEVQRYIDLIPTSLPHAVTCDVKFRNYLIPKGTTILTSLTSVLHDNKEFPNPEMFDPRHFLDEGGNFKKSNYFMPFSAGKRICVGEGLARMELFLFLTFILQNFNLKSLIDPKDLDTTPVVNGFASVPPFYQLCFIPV

`CN(C)C(=O)c1ccc(N(Cc2ccc(O)cc2)C(=O)c2ccc(O)cc2O)cc1`: the IC50 at Cytochrome P450 2C9 is 13400 nM; at Cytochrome P450 1A2 it was above 20000 nM; in assay [1], 113 nM; on Cytochrome P450 2C19, above 20000 nM; at Cytochrome P450 3A4, 6470 nM; against Heat shock protein HSP90, above 10000 nM. For the same compound, the IC50 in assay [4] was 150 nM; in assay [5] it was 1460 nM; in [6], 136 nM; at Cytochrome P450 2D6 it was above 20000 nM; in assay [7] it was 1310 nM; in assay [8], 34 nM. The GI50 with DU-145 [2] came to 3500 nM; in the assay with NCI-H1299 [3], 4900 nM.
Take `CN(C)C(=O)c1ccc(N(Cc2ccc(Br)o2)C(=O)c2ccc(O)cc2O)cc1`: the IC50 was above 20000 nM on Cytochrome P450 2C9; above 20000 nM at Cytochrome P450 1A2; 36 nM in assay [1]; 4300 nM on Cytochrome P450 2C19; 1400 nM on Cytochrome P450 3A4; 830 nM against Heat shock protein HSP90. Also, the IC50 was 10 nM in assay [4]; 2090 nM in [5]; 59 nM in [6]; above 20000 nM against Cytochrome P450 2D6; 310 nM in assay [7]; 13 nM in assay [8]. Also, the Activity with NCI-H1299 [9] is 30 - 34%; with NCI-H1299 [10] it was 32%; in the assay on NCI-H1299 [12] it was 50%; in the assay on NCI-H1299 [14] it was 70%; with DU-145 [15] it was 60%; in the assay with NCI-H1299 [16], 24.8%. Moreover, the inhibition at 20 µM in the assay on NCI-H1299 [11] came out at 100%. The values for the GI50 with DU-145 [2], in the assay on NCI-H1299 [13] and in the assay with NCI-H1299 [3] were 10200 nM, 5500 nM and 13400 nM, respectively.
Regarding `CN(C)C(=O)c1ccc(N(Cc2cc(Br)cs2)C(=O)c2ccc(O)cc2O)cc1`, the half-inhibitory concentration (IC50) was 18000 nM at Cytochrome P450 2C9; above 20000 nM against Cytochrome P450 1A2; 9 nM in assay [1]; 7800 nM against Cytochrome P450 2C19; below 1000 nM on Cytochrome P450 3A4; 5790 nM against Heat shock protein HSP90. The IC50 in assay [4] is 8 nM; in assay [6], 80 nM; on Cytochrome P450 2D6 it was above 20000 nM; in [8] it was 5 nM. Further, the figures for the GI50 with DU-145 [2] and with NCI-H1299 [3] were 41900 nM and 51600 nM, respectively.
For the compound `O=C(O)C(Cl)Cl` [DICHLOROACETIC ACID], the GI50 in the assay on NCI-H1299 [13] stood at 8500 nM.
